From patent publication US7820865B2, “Photolatent systems” (Ciba Corporation, priority 2005, dated 2010)

| Structure (SMILES) | melting point [°C] |
| --- | --- |
| CCOCC(=O)c1cc(C(C)C)c(O)c(C(C)C)c1 | 97 to 98 |
| COc1cc(C=O)ccc1OCC(=O)c1cc(C(C)(C)C)c(O)c(C(C)(C)C)c1 [Compound 101, 4-[2-(3,5-di-tert-butyl-4-hydroxyphenyl)-2-oxo-ethoxy]-3-methoxy-benzaldehyde] | 99 to 100 |
| COc1cc(C=O)ccc1OCC(=O)c1cc(C2CCCCC2)c(O)c(C2CCCCC2)c1 [Compound 103, 4-[2-(3,5-di-cyclohexyl-4-hydroxyphenyl)-2-oxo-ethoxy]-3-methoxy-benzaldehyde] | 163 to 164 |
| CC(C)(C)c1cc(C(=O)COc2ccc(Cl)cc2Oc2ccc(Cl)cc2Cl)cc(C(C)(C)C)c1O [Compound 104, 2-[4-chloro-2-(2,4-dichloro-phenoxy)-phenoxy]-1-(3,5-di-tert-butyl-4-hydroxyphenyl)-ethanone] | 111 to 114 |
| Cc1ccc(OCC(=O)c2cc(C(C)C)c(O)c(C(C)C)c2)cc1 [Compound 105, 1-(4-hydroxy-3,5-di-isopropylphenyl)-2-p-tolyloxy-ethanone] | 124 to 125 |
| CCC(C)(C)c1cc(C(=O)COc2ccc(C=O)cc2OC)cc(C(C)(C)CC)c1O [Compound 107, 4-{2-[3,5-bis(1,1-dimethyl-propyl)-4-hydroxy-phenyl]-2-oxo-ethoxy}-3-methoxy-benzaldehyde] | 106 to 107 |
| CC(C)=CCC/C(C)=C/COCC(=O)c1cc(C(C)C)c(O)c(C(C)C)c1 [Compound 108, 2-[(E)-3,7-dimethyl-octa-2,6-dienyloxy]-1-(4-hydroxy-3,5-di-isopropyl-phenyl)-ethanone] | 70 to 71 |
| CC(C)=CCCC(C)CCOCC(=O)c1cc(C(C)C)c(O)c(C(C)C)c1 (centres unmarked) [Compound 109, 2-(3,7-dimethyl-oct-6-enyloxy]-1-(4-hydroxy-3,5-di-isopropyl-phenyl)-ethanone] | 37 to 39 |

Further lines, results first:

| melting point [°C] | Structure (SMILES) |
| --- | --- |
| 83 to 84 | CC(C)c1cc(C(=O)CO[C@@H]2C[C@H](C)CC[C@H]2C(C)C)cc(C(C)C)c1O [Compound 110, 1-(4-hydroxy-3,5-di-isopropylphenyl)-2-[(1R,2S,5R)-2-isopropyl-5-methyl-cyclohexyloxy]-ethanone] |
| 73 to 75 | CCOCC(=O)c1cc(C(C)(C)C)c(O)c(C(C)(C)C)c1 [Compound 113, 2-ethoxy-1-(4-hydroxy-3,5-di-tert-butylphenyl)-ethanone] |
| 64 | CCOC(C)C(=O)c1cc(C(C)(C)C)c(O)c(C(C)(C)C)c1 (centres unmarked) [Compound 115, 1-(3,5-di-tert-butyl-4-hydroxyphenyl)-2-ethoxy-propan-1-one] |
| 50 | CC(C)=CCC/C(C)=C/COCC(=O)c1cc(C(C)(C)C)c(O)c(C(C)(C)C)c1 [Compound 116, 1-(3,5-di-tert-butyl-4-hydroxyphenyl)-2-[(E)-3,7-dimethyl-octa-2,6-dienyloxy]-ethanone] |
| 127 to 128 | CC(C)c1cc(C(=O)CI)cc(C(C)C)c1O [Compound 201, 1-(4-hydroxy-3,5-di-isopropylphenyl)-2-iodo-ethanone] |
| 88 to 89 | CC(C)(C)c1cc(C(=O)CI)cc(C(C)(C)C)c1O [Compound 202, 1-(4-hydroxy-3,5-di-tert-butylphenyl)-2-iodo-ethanone] |
| 183 to 185 | O=C(CI)c1cc(C2CCCCC2)c(O)c(C2CCCCC2)c1 [Compound 203, 1-(4-hydroxy-3,5-di-cyclohexyphenyl)-2-iodo-ethanone] |
| 76 to 77 | CCC(C)(C)c1cc(C(=O)CI)cc(C(C)(C)CC)c1O [Compound 204, 1-(3,5-bis(1,1-dimethylpropyl)-4-hydroxyphenyl)-2-iodo-ethanone] |
| 141 | CC(I)C(=O)c1cc(C(C)(C)C)c(O)c(C(C)(C)C)c1 (centres unmarked) [Compound 205, 1-(4-hydroxy-3,5-tert-butylphenyl)-2-iodo-propane-1-one] |
